Laboratory results as given in PMC5908784, “Extracellular loops 2 and 3 of the calcitonin receptor selectively modify agonist binding and efficacy” (Biochemical Pharmacology, 2018).
Where a chain is given by its changes, count along the chain named. Where a SMILES comes first, the peptide text is derived from it. Bridges are numbered along the chain shown (N, C = ends).

What was measured:
Test in all cases: cAMP accumulation
Assay type in all cases: cell-based
Conditions in all cases: mean ± S.E.M.; for Emax: cAMP maximal response, SEM; for EC50: cAMP, CV1-FlpIn cells, 30 min, IBMX
hCTR P363A = biological target: T1, hCTR P363A (Homo sapiens, UniProt P30988, P363A)
T1 construct: expressed in transfected cells
T1 sequence (P30988 25-474 P363A): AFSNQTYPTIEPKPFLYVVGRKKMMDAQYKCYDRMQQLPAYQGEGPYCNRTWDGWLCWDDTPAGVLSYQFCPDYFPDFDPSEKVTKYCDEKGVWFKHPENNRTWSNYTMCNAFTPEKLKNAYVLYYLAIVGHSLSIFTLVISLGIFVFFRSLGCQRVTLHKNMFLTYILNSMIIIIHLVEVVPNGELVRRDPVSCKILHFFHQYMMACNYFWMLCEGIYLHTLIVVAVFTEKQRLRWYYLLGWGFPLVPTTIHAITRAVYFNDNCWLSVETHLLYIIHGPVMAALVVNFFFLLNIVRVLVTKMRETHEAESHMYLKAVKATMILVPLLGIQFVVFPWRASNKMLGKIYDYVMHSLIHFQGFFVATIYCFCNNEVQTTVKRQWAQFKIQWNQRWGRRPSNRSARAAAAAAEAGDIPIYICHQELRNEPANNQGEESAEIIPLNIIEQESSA
Outline: (§1)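 For each mutant, cAMP generated during a 30 min ligand exposure with IBMX is reported as a fraction of the 100 μM forskolin maximum. Cells were ethanol-extracted and dried at room temperature prior to measurement.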

hCTR R281A = biological target: T2, hCTR R281A (Homo sapiens, UniProt P30988, R281A)
T2 construct: expressed in transfected cells
T2 sequence (P30988 25-474 R281A): T1 sequence (P30988 25-474 P363A) with R257A, A339P
Outline: as §1

hCTR L298A = biological target: T3, hCTR L298A (Homo sapiens, UniProt P30988, L298A)
T3 construct: c-Myc (N); expressed in transfected cells
T3 sequence (P30988 25-474 L298A): T1 sequence (P30988 25-474 P363A) with L274A, A339P
Outline: as §1

hCTR Y284A = biological target: T4, hCTR Y284A (Homo sapiens, UniProt P30988, Y284A)
T4 construct: expressed in transfected cells
T4 sequence (P30988 25-474 Y284A): T1 sequence (P30988 25-474 P363A) with Y260A, A339P
Outline: as §1

hCTR Y372A = biological target: T5, hCTR Y372A (Homo sapiens, UniProt P30988, Y372A)
T5 construct: c-Myc (N); expressed in transfected cells
T5 sequence (P30988 25-474 Y372A): T1 sequence (P30988 25-474 P363A) with A339P, Y348A
Outline: as §1

## CC(C)C[C@H](NC(=O)CNC(=O)[C@H](C)NC(=O)[C@H](CC(C)C)NC(=O)[C@H](CCCNC(=N)N)NC(=O)[C@H](Cc1cnc[nH]1)NC(=O)[C@@H](NC(=O)[C@@H](NC(=O)[C@@H]1CSSC[C@H](NC(=O)[C@H](C)N)C(=O)N[C@@H](CC(=O)O)C(=O)N[C@@H]([C@@H](C)O)C(=O)N[C@@H](C)C(=O)N[C@@H]([C@@H](C)O)C(=O)N1)C(C)C)[C@@H](C)O)C(=O)N[C@@H](CC(C)C)C(=O)N[C@@H](CO)C(=O)N[C@@H](CCCNC(=N)N)C(=O)N[C@@H](CO)C(=O)NCC(=O)NCC(=O)N[C@H](C(=O)N[C@H](C(=O)N[C@@H](CCCCN)C(=O)N[C@@H](CC(N)=O)C(=O)N[C@@H](CC(N)=O)C(=O)N[C@@H](Cc1ccccc1)C(=O)N[C@H](C(=O)N1CCC[C@H]1C(=O)N[C@H](C(=O)N[C@@H](CC(N)=O)C(=O)N[C@H](C(=O)NCC(=O)N[C@@H](CO)C(=O)N[C@@H](CCCCN)C(=O)N[C@@H](C)C(=O)N[C@@H](Cc1ccccc1)C(N)=O)C(C)C)[C@@H](C)O)C(C)C)C(C)C)C(C)C [hαCGRP]
hCTR P363A
  Emax: 38 ± 7%
  EC50: 38.9 nM
hCTR R281A
  Emax: 114 ± 25%
  EC50: 38.9 nM
hCTR L298A
  Emax: 109 ± 17%
  EC50: 33.9 nM
hCTR Y284A
  Emax: 139 ± 22%
  EC50: 19.1 nM
hCTR Y372A
  Emax: 36 ± 8%
  EC50: 123 nM

## CC[C@H](C)[C@H](NC(=O)[C@H](C)NC(=O)[C@@H](NC(=O)[C@H](CCC(N)=O)NC(=O)[C@@H]1CCCN1C(=O)[C@H](Cc1ccccc1)NC(=O)[C@@H](NC(=O)[C@H](Cc1c[nH]cn1)NC(=O)[C@H](Cc1ccccc1)NC(=O)[C@H](CCCCN)NC(=O)[C@H](CC(N)=O)NC(=O)[C@H](Cc1ccccc1)NC(=O)[C@H](CC(=O)O)NC(=O)[C@H](CCC(N)=O)NC(=O)[C@@H](NC(=O)[C@H](Cc1ccc(O)cc1)NC(=O)[C@@H](NC(=O)CNC(=O)[C@H](CC(C)C)NC(=O)[C@H](CCSC)NC(=O)[C@@H]1CSSC[C@H](N)C(=O)NCC(=O)N[C@@H](CC(N)=O)C(=O)N[C@@H](CC(C)C)C(=O)N[C@@H](CO)C(=O)N[C@@H]([C@@H](C)O)C(=O)N1)[C@@H](C)O)[C@@H](C)O)[C@@H](C)O)[C@@H](C)O)C(=O)NCC(=O)N[C@H](C(=O)NCC(=O)N[C@@H](C)C(=O)N1CCC[C@H]1C(N)=O)C(C)C [hCT]
hCTR P363A
  Emax: 111 ± 5%
hCTR R281A
  Emax: 117 ± 15%
hCTR L298A
  Emax: 103 ± 6%
hCTR Y284A
  Emax: 103 ± 10%
hCTR Y372A
  Emax: 149 ± 12%

## CC(C)C[C@H](NC(=O)[C@H](CC(N)=O)NC(=O)[C@H](CC(N)=O)NC(=O)[C@H](CO)NC(=O)[C@H](CO)NC(=O)[C@H](CCCNC(=N)N)NC(=O)[C@@H](NC(=O)[C@H](CC(C)C)NC(=O)[C@H](Cc1ccccc1)NC(=O)[C@H](CC(N)=O)NC(=O)[C@H](C)NC(=O)[C@H](CC(C)C)NC(=O)[C@H](CCCNC(=N)N)NC(=O)[C@H](CCC(N)=O)NC(=O)[C@@H](NC(=O)[C@H](C)NC(=O)[C@@H]1CSSC[C@H](NC(=O)[C@@H](N)CCCCN)C(=O)N[C@@H](CC(N)=O)C(=O)N[C@@H]([C@@H](C)O)C(=O)N[C@@H](C)C(=O)N[C@@H]([C@@H](C)O)C(=O)N1)[C@@H](C)O)C(C)C)C(=O)NCC(=O)N1CCC[C@H]1C(=O)N[C@H](C(=O)N[C@@H](CC(C)C)C(=O)N1CCC[C@H]1C(=O)N1CCC[C@H]1C(=O)N[C@H](C(=O)N[C@@H](CC(N)=O)C(=O)N[C@H](C(=O)NCC(=O)N[C@@H](CO)C(=O)N[C@@H](CC(N)=O)C(=O)N[C@H](C(=O)N[C@@H](Cc1ccc(O)cc1)C(N)=O)[C@@H](C)O)C(C)C)[C@@H](C)O)C(C)C [rAmy]
hCTR P363A
  Emax: 94 ± 20%
hCTR R281A
  Emax: 63 ± 14%
hCTR L298A
  Emax: 117 ± 13%
hCTR Y284A
  Emax: 101 ± 10%
hCTR Y372A
  Emax: 170 ± 26%

## CSCC[C@H](NC(=O)CNC(=O)[C@H](CO)NC(=O)[C@H](Cc1ccccc1)NC(=O)[C@H](CCCNC(=N)N)NC(=O)[C@H](Cc1c[nH]cn1)NC(=O)[C@H](Cc1ccccc1)NC(=O)[C@H](CC(N)=O)NC(=O)[C@H](CC(N)=O)NC(=O)[C@H](CC(C)C)NC(=O)[C@H](CC(N)=O)NC(=O)[C@H](CCCNC(=N)N)NC(=O)[C@H](Cc1c[nH]c2ccccc12)NC(=O)[C@H](Cc1ccc(O)cc1)NC(=O)[C@H](C)NC(=O)[C@H](CO)NC(=O)[C@H](CC(C)C)NC(=O)[C@@H](NC(=O)[C@@H]1CSSC[C@H](N)C(=O)N[C@@H](CO)C(=O)N[C@@H](CC(N)=O)C(=O)N[C@@H](CC(C)C)C(=O)N[C@@H](CO)C(=O)N[C@@H]([C@@H](C)O)C(=O)N1)C(C)C)C(=O)NCC(=O)N[C@@H](Cc1ccccc1)C(=O)NCC(=O)N1CCC[C@H]1C(=O)N[C@@H](CCC(=O)O)C(=O)N[C@H](C(=O)N1CCC[C@H]1C(N)=O)[C@@H](C)O [pCT] (H-CSNLSTCVLSAYWRNLNNFHRFSGMGFGPETP-NH2; disulfide 1-7)
hCTR P363A
  Emax: 148 ± 15%
  EC50: 0.389 nM
hCTR R281A
  Emax: 147 ± 16%
  EC50: 0.646 nM
hCTR L298A
  Emax: 118 ± 7%
  EC50: 0.0631 nM
hCTR Y284A
  Emax: 104 ± 9%
  EC50: 0.0631 nM
hCTR Y372A
  Emax: 137 ± 13%
  EC50: 1.15 nM

## CC(C)C[C@H](NC(=O)[C@H](CCCCN)NC(=O)CNC(=O)[C@H](CC(C)C)NC(=O)[C@@H](NC(=O)[C@@H]1CSSC[C@H](N)C(=O)N[C@@H](CO)C(=O)N[C@@H](CC(N)=O)C(=O)N[C@@H](CC(C)C)C(=O)N[C@@H](CO)C(=O)N[C@@H]([C@@H](C)O)C(=O)N1)C(C)C)C(=O)N[C@@H](CO)C(=O)N[C@@H](CCC(N)=O)C(=O)N[C@@H](CCC(=O)O)C(=O)N[C@@H](CC(C)C)C(=O)N[C@@H](Cc1c[nH]cn1)C(=O)N[C@@H](CCCCN)C(=O)N[C@@H](CC(C)C)C(=O)N[C@@H](CCC(N)=O)C(=O)N[C@H](C(=O)N[C@@H](Cc1ccc(O)cc1)C(=O)N1CCC[C@H]1C(=O)N[C@@H](CCCNC(=N)N)C(=O)N[C@H](C(=O)N[C@@H](CC(N)=O)C(=O)N[C@H](C(=O)NCC(=O)N[C@@H](CO)C(=O)NCC(=O)N[C@H](C(=O)N1CCC[C@H]1C(N)=O)[C@@H](C)O)[C@@H](C)O)[C@@H](C)O)[C@@H](C)O [sCT]
hCTR P363A
  Emax: 111 ± 9%
hCTR R281A
  Emax: 119 ± 5%
hCTR L298A
  Emax: 112 ± 9%
hCTR Y284A
  Emax: 111 ± 11%
hCTR Y372A
  Emax: 113 ± 10%
